Assay results from US11192914B2, “Alkyne containing nucleotide and nucleoside therapeutic compositions and uses related thereto” (Emory University, priority 2016, dated 2021).
Like-named read-outs stand apart in the source and are kept apart here.

Legend:
DENV2 New Guinea C = assay: Anti-Dengue virus cytoprotection assay; assay type: cell-based, Dengue virus type 2
Protocol: Cell Preparation—BHK21 cells (Syrian golden hamster kidney cells, ATCC catalog #CCL-I 0), Vero cells (African green monkey kidney cells, ATCC catalog #CCL-81), or Huh-7 cells (human hepatocyte carcinoma) were passaged in DMEM supplemented with 10% FBS, 2 mM L-glutamine, 100 U/mL penicillin, and 100 μg/mL streptomycin in T-75 flasks prior to use in the antiviral assay. On the day preceding the assay, the cells were split 1:2 to assure they were in an exponential growth phase at the time of infection. Total cell and viability quantification was performed using a hemocytometer and Trypan Blue dye exclusion. Cell viability was greater than 95% for the cells to be utilized in the assay. The cells were resuspended at 3×10^3 ([…] for Vero cells and Huh-7 cells) cells per well in tissue culture medium and added to flat bottom microtiter plates in a volume of 100 μL. The plates were incubated at 37° C./5% CO2 overnight to allow for cell adherence.
Virus Preparation—The Dengue virus type 2 New Guinea C strain was obtained from ATCC (catalog #VR-1584) and was grown in LLC-MK2 (Rhesus monkey kidney cells; catalog #CCL-7.1) cells for the production of stock virus pools. An aliquot of virus pretitered in BHK21 cells was removed from the freezer (−80° C.) and allowed to thaw slowly to room temperature in a biological safety cabinet. Virus was resuspended and diluted into assay medium (DMEM supplemented with 2% heat-inactivated FBS, 2 mM L-glutamine, 100 U/mL penicillin, and 100 μg/mL streptomycin) such that the amount of virus added to each well in a volume of 100 μL was the amount determined to yield 85 to 95% cell killing at 6 days post-infection.
Plate Format—Each plate contains cell control wells (cells only), virus control wells (cells plus virus), triplicate drug toxicity wells per compound (cells plus drug only), as well as triplicate experimental wells (drug plus cells plus virus).
Efficacy and Toxicity XTT-Following incubation at 37° C. in a 5% CO2 incubator, the test plates were stained with the tetrazolium dye XTT (2,3-bis(2-methoxy-4-nitro-5-sulfophenyl)-5-[(phenylamino)carbonyl]-2H-tetrazolium hydroxide). XTT-tetrazolium was metabolized by the mitochondrial enzymes of metabolically active cells to a soluble formazan product, allowing rapid quantitative analysis of the inhibition of virus-induced cell killing by antiviral test substances. XTT solution was prepared daily as a stock of 1 mg/mL in RPMI 1640. Phenazine methosulfate (PMS) solution was prepared at 0.15 mg/mL in PBS and stored in the dark at −20° C. XTT/PMS stock was prepared immediately before use by adding 40 μL of PMS per ml of XTT solution. Fifty microliters of XTT/PMS was added to each well of the plate and the plate was reincubated for 4 hours at 37° C. Plates were sealed with adhesive plate sealers and shaken gently or inverted several times to mix the soluble formazan product and the plate was read spectrophotometrically at 450/650 nm with a Molecular Devices Vmax plate reader.
Data Analysis —Raw data was collected from the Softmax Pro 4.6 software and imported into a Microsoft Excel spreadsheet for analysis. The percent reduction in viral cytopathic effect compared to the untreated virus controls was calculated for each compound. The percent cell control value was calculated for each compound comparing the drug treated uninfected cells to the uninfected cells in medium alone.

HRV = assay: Antiviral assay HRV; assay type: cell-based; conditions: HeLa, read-out: HRV EC50
RSV = assay: Antiviral assay RSV; assay type: cell-based; conditions: human respiratory syncytial virus, Huh-7, read-out: RSV EC50
Protocol: Cell Preparation-HEp2 cells (human epithelial cells, ATCC catalog #CCL-23) were passaged in DMEM supplemented with 10% FBS, 2 mM L-glutamine, 100 U/mL penicillin, 100 μg/mL streptomycin 1 mM sodium pyruvate, and 0.1 mM NEAA, T-75 flasks prior to use in the antiviral assay. On the day preceding the assay, the cells were split 1:2 to assure they were in an exponential growth phase at the time of infection. Total cell and viability quantification was performed using a hemocytometer and Trypan Blue dye exclusion. Cell viability was greater than 95% for the cells to be utilized in the assay. The cells were resuspended at 1×10^4 cells per well in tissue culture medium and added to flat bottom microtiter plates in a volume of 100 μL. The plates were incubated at 37° C./5% CO2 overnight to allow for cell adherence. […] Virus was resuspended and diluted into assay medium (DMEM supplemented with 2% heat-inactivated FBS, 2 mM L-glutamine, 100 U/mL penicillin, 100 μg/mL streptomycin, 1 mM sodium pyruvate, and 0.1 mM NEAA) such that the amount of virus added to each well in a volume of 100 μL was the amount determined to yield 85 to 95% cell killing at 6 days post-infection. Efficacy and Toxicity XTT-Plates were stained and analyzed as previously described for the Dengue cytoprotection assay.

ZIKV [1] = assay: ZIKV infectious (cytoprotection, XTT) assay; assay type: cell-based; conditions: Zika virus, Huh-7, Cell Line Huh-7 (Example 92); read-out: ZIKV EC50
ZIKV [2] = assay: ZIKV infectious (cytoprotection, XTT) assay; assay type: cell-based, Zika virus; conditions: Zika virus, Vero, Cell Line Vero (Example 92); read-out: ZIKV EC50
Protocol: Vero cells were passaged in DMEM medium in T-75 flasks prior to use in the antiviral assay. On the day preceding the assay, the cells were split 1:2 to assure they were in exponential growth phase at the time of infection. The cells were resuspended at […] cells per well in tissue culture medium and added to flat bottom microtiter plates in a volume of […]. The plates were incubated at 37° C./5% CO2 overnight to allow for cell adherence. Separately, Zika virus was titrated in LLCMK2 cells to define the inoculum for use in the antiviral assay. Virus was diluted in DMEM medium such that the amount of virus added to each well in a volume of […] was the amount determined to achieve 85 to 95% cell killing at 5 days post-infection. Following incubation test plates were stained with XTT dye. XTT solution was prepared daily as a stock solution of 1 mg/mL in RPM11640. PMS solution was prepared at 0.15 mg/mL in PBS and stored in the dark at −20° C. XTT/PMS stock was prepared immediately before use by adding […] of PMS per mL of XTT solution. Fifty microliters of XTT/PMS was added to each well of the plate, and the plate was reincubated for 4 hours at 37° C. Plates were sealed with adhesive plate sealers ad shaken gently to mix the soluble formazan product, and the plate was read spectrophotometrically read 450/650 nm with a Molecular Devices Vmax plate reader. The raw data was collected from Softmax Pro and imported into a Microsoft Excel XLfit4 spreadsheet for analysis using four parameter curve fit calculations.

`C#CC1(O)C(O)[C@@H](COP(=O)(OCOC(=O)C(C)(C)C)OCOC(=O)C(C)(C)C)O[C@H]1n1ccc(=O)[nH]c1=O` (stereo partly shown) [EIDD-02290] was tested, and the EC50 (DENV2 New Guinea C; DENV2, Huh-7, read-out: DENV2 EC50) was 240 nM, the EC50 (DENV2 New Guinea C; DENV2, Vero, read-out: DENV2 EC50) was 7560 nM and the EC50 (DENV2 New Guinea C; DENV2, read-out: DENV2 EC50) was 7760 nM. For the same compound, the EC50 (HRV) was 50 nM, the EC50 (RSV) was 90000 nM and the EC50 (ZIKV [1]) was 310 nM. It also gave an EC50 (ZIKV [2]) of 1060 nM.
